How the values were obtained:
Format in all cases: in vivo
[1] = system: A. retroflexus; experiment: Herbicidal activity by field soil treatment (Test example 2); set-up: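 index 0 to 10 in 10% steps of herbicidal effect with 10 meaning complete death and 0 below 10%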; details: 1000 g effective component per hectare, day 21 after the treatment
How it was run: (§1)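 Seeds of the four weeds sown in field soil in pots; wettable powder diluted in water sprayed pre-emergence on soil surface at 1000 L/ha, giving 1000 g active per hectare. Greenhouse grown; herbicidal effect scored on day 21 after treatment by set criteria.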

[2] = system: Echinochloa crus-galli; experiment: as above; set-up: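 index 0 to 10 in 10% steps of herbicidal effect with 10 meaning complete death and 0 below 10%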; details: 1000 g effective component per hectare, day 21 after the treatment
How it was run: as §1

[3] = system: Indian millet; experiment: as above; set-up: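 index 0 to 10 in 10% steps of herbicidal effect with 10 meaning complete death and 0 below 10%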; details: 1000 g effective component per hectare, day 21 after the treatment
How it was run: as §1

[4] = system: foxtail; experiment: as above; details: 1000 g effective component per hectare, day 21 after the treatment;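 note: index 0 to 10 in 10% steps of herbicidal effect with 10 meaning complete death and 0 below 10%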
Protocol: [table] Test for Determining Herbicidal Activity by Field Soil Treatment A 80 cm^2 wide plastic pot was filled with a field soil and seeds of each of Echinochloa crus-galli, foxtail, Indian millet, and A. retroflexus were sowed and then covered with soil. The wettable powder produced with reference to the Formulation example 1 was diluted water, and applied on the soil surface by using a small sprayer in an amount of 1000 liters per hectare so that the effective component is 1000 g per hectare. After that, the plants were cultivated in a greenhouse, and on day 21 after the treatment, evaluation was made by the criteria described in Table 72 for determining the herbicidal effects.

[5] = system: A. retroflexus; experiment: Herbicidal activity by field foliage treatment (Test example 3); set-up: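 index 0 to 10 in 10% steps of herbicidal effect with 10 meaning complete death and 0 below 10%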; details: 1000 g effective component per hectare, day 14 after the treatment
How it was run: (§2)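 Field soil in pots; Indian millet and A. retroflexus grown 2 weeks in greenhouse, then sprayed over whole plant with water-diluted wettable powder at 1000 L/ha, giving 1000 g active component/ha. Herbicidal effect scored by set criteria on day 14 after treatment.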

[6] = system: Indian millet; experiment: as above; set-up: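 index 0 to 10 in 10% steps of herbicidal effect with 10 meaning complete death and 0 below 10%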; details: 1000 g effective component per hectare, day 14 after the treatment
How it was run: as §2

[7] = system: Monochoria vaginalis; experiment: Herbicidal activity by paddy field soil treatment (Test Example 1); set-up: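 index 0 to 10 in 10% steps of herbicidal effect with 10 meaning complete death and 0 below 10%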; details: 1000 g of effective component per hectare, evaluated on day 21 after the treatment, criteria of Table 72
How it was run: (§3)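 Paddy soil in pots sown with seeds, flooded to 3 cm; next day wettable powder diluted in water applied to water surface at 1000 g active ingredient/ha. Greenhouse-grown; herbicidal effect scored on day 21 after treatment against rating criteria.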

[8] = system: Echinochloa oryzicola; experiment: as above; set-up: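 index 0 to 10 in 10% steps of herbicidal effect with 10 meaning complete death and 0 below 10%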; details: 1000 g of effective component per hectare, evaluated on day 21 after the treatment, criteria of Table 72
How it was run: as §3

[9] = system: Scirpus juncoides Rocxb.; experiment: as above; set-up: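 index 0 to 10 in 10% steps of herbicidal effect with 10 meaning complete death and 0 below 10%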; details: applied on water surface, 1000 g of effective component per hectare, day 21 after the treatment
How it was run: as §3

[10] = system: Echinochloa crus-galli; experiment: Herbicidal activity by field foliage treatment (Test example 3); set-up: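 index 0 to 10 in 10% steps of herbicidal effect with 10 meaning complete death and 0 below 10%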; details: 1000 g effective component per hectare, day 14 after the treatment
How it was run: (§4)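 Potted field-soil plants grown 2 weeks in a greenhouse were sprayed over the whole foliage with diluted wettable powder at 1000 L/ha, delivering 1000 g active ingredient per hectare. Herbicidal effect scored by visual criteria 14 days after treatment.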

[11] = system: Setaria viridis; experiment: as above; details: 1000 g effective component per hectare, day 14 after the treatment;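 note: index 0 to 10 in 10% steps of herbicidal effect with 10 meaning complete death and 0 below 10%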
How it was run: as §4

| SMILES | herbicidal effect index, Amaranthus retroflexus [1] | herbicidal effect index, Echinochloa crus-galli [2] | herbicidal effect index, Abutilon theophrasti [3] | herbicidal effect index, Setaria viridis [4] | herbicidal effect index, Amaranthus retroflexus [5] | herbicidal effect index, Abutilon theophrasti [6] | Herbicidal effects index number, Monochoria vaginalis [7] | Herbicidal effects index number, Echinochloa oryzicola [8] | herbicidal effect index, S. juncoides Rocxb. [9] | herbicidal effect index, Echinochloa crus-galli [10] | herbicidal effect index, Setaria viridis [11] |
| --- | --- | --- | --- | --- | --- | --- | --- | --- | --- | --- | --- |
| Cc1ccc(C)c(-n2c(=O)c(C(=O)C3=C(O)CCCC3=O)nn(C)c2=O)c1 [I-91] | 10 | 9 | 10 | 10 | 10 | 10 | 10 | 10 | 10 | 9 | 10 |
| Cn1nc(C(=O)C2=C(O)CCCC2=O)c(=O)n(C2CCCCC2)c1=O [I-19] | 8 | 8 |  | 8 | 10 | 10 | 10 | 10 | 10 | 10 | 10 |
| Cn1nc(C(=O)C2=C(O)CCCC2=O)c(=O)n(-c2ccc(-c3ccccc3)cc2)c1=O [I-271] | 10 | 10 | 10 | 10 | 10 | 9 | 8 | 8 | 10 | 10 | 7 |
| COCCCn1c(=O)c(C(=O)C2=C(O)CCCC2=O)nn(C)c1=O [I-41] | 10 | 9 | 8 | 7 | 10 | 10 | 8 | 8 | 10 | 10 | 10 |
| Cn1nc(C(=O)C2=C(O)CCCC2=O)c(=O)n(-c2ccccc2C(F)(F)F)c1=O [I-63] | 10 | 10 | 10 | 10 | 10 | 10 | 10 | 10 | 10 | 10 | 10 |
| COc1cc(-n2c(=O)c(C(=O)C3=C(O)CCCC3=O)nn(C)c2=O)ccc1C [I-155] | 10 |  | 10 | 7 | 10 | 10 | 10 | 10 | 10 | 9 | 7 |
| Cc1ccc(-n2c(=O)c(C(=O)C3=C(O)C(C)(C)C(=O)C(C)(C)C3=O)nn(C)c2=O)c(C)c1 [VI-65] | 10 |  | 10 | 7 | 10 | 10 | 10 | 10 | 10 | 9 | 7 |
| Cc1c(Cl)cccc1-n1c(=O)c(C(=O)C2=C(O)CCCC2=O)nn(C)c1=O [I-136] | 9 |  | 9 | 8 | 10 | 9 | 10 | 9 | 10 | 9 | 9 |
| Cc1cncc(-n2c(=O)c(C(=O)C3=C(O)CCCC3=O)nn(C)c2=O)c1 [I-278] | 10 | 9 |  | 9 | 10 | 9 | 9 | 8 | 10 | 10 | 10 |
| COc1cc(-n2c(=O)c(C(=O)C3=C(O)CCCC3=O)nn(C)c2=O)ccc1F [I-111] | 10 | 9 | 9 | 7 | 10 | 10 | 10 | 10 | 10 | 10 |  |

— US8969554B2, “6-acyl-1,2,4-triazine-3,5-dione derivative and herbicides” (Kumiai Chemical Industry Co., Ltd., priority 2010, dated 2015)
